Patent US10766866B2, “Deterrents for arthropods and marine organisms” (priority 2017, dated 2020)

Experiments:
[1] = tested on: Aedes mosquito; assay: Protection against mosquito biting and toxicity to mosquitoes; assay type: in vivo
[2] = target: T1, Hsα2C-AR (human α2C adrenergic receptor) (Homo sapiens, UniProt P18825); assay: [3H]rauwolscine competition radioligand binding, membranes of clonal mammalian cell lines; details: 50 mM Tris pH 7.4, 25° C., 2 hr, Cheng-Prusoff
T1 construct: expressed in transfected cells
T1 sequence (P18825 1-462): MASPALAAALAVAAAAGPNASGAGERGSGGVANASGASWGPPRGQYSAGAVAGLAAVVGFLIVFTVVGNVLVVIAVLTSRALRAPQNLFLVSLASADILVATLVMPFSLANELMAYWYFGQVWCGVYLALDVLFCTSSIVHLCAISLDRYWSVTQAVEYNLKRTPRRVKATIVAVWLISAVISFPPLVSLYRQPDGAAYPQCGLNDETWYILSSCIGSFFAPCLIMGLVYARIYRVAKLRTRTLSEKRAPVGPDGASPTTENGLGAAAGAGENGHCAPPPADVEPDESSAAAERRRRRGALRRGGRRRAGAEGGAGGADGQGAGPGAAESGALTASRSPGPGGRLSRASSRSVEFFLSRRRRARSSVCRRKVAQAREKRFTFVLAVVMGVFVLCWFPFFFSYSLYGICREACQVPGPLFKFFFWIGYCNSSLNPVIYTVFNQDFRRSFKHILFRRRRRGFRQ
Excerpt: (§1) Functional expression of cloned arthropod OctRs and human α2-ARs: The cDNAs for α-like OctRs from different arthropod species (e.g., Anopheles gambiae, Aedes aegypti, Periplaneta americana, Drosophila melanogaster, Ixodes scapularis, Balanus improvises) and for α2-AR subtypes from humans were individually subcloned into mammalian expression vectors. These plasmids, which harbor a resistance gene for the selection drug G418 and the cDNA sequence for the receptor of interest, were individually transfected into mammalian cells using a calcium phosphate precipitation method. G418 selection was then employed to generated stable clonal cell lines. Utilizing rapid filtration radioligand binding techniques, the cell surface density of receptor expression of the individual clonal cell lines was determined at equilibrium and those with similar high levels of expression were selected for further experiments. Briefly, binding conditions were 50 mM Tris binding buffer pH 7.4 at 25° C. and an ice-cold wash buffer 10 mM Tris-HCl, pH 7.4). The radioligand was [3H]rauwolscine and non-specific binding was determined in the presence of 10 μM atipamezole. Following the addition of membranes prepared from the clonal cell lines, samples were mixed and allowed 2 hr. to reach equilibrium before rapid filtration and washing through 0.3% PEI-treated GF/C filters. The radioactivity remaining on the filters was quantified by scintillation counting. Receptor density (Bmax) was back calculated knowing the specific activity of the radioligand and applying the equation for a square hyperbola model: Bmax=(Y·(KD+X))/X, where Y is [specifically bound radioligand] and X=[radio ligand concentration]. The affinity (KD) for the radioligand for each receptor was determined in separate saturation isotherm binding experiments using the same binding conditions as describe above.
(§2) Measurement of compound affinities by competition radioligand binding: Affinities (Ki) for compounds were determined by [3H]rauwolscine competition binding using the same binding conditions as described above. The Ki values were calculated from IC50 values using the Cheng-Prusoff equation.

[3] = target: T2, Hsα2A-AR (human α2A adrenergic receptor) (Homo sapiens, UniProt P08913); assay: as above; details: 50 mM Tris pH 7.4, 25° C., 2 hr, Cheng-Prusoff
T2 construct: expressed in transfected cells; membranes
Excerpt: as §1, §2

[4] = Volatility; assay type: physicochemical
[5] = tested on: Periplaneta americana OctR (PaOctR); assay: OctR activation, change in intracellular calcium; assay type: cell-based; details: Periplaneta cockroach OctR over Homo sapien α2-AR subtypes
Excerpt: as §1
(§3) Measurement of OctR activation by measuring changes in intracellular calcium: Activation of arthropod α-like OctRs increases intracellular calcium via a Gq-coupling mechanism. This involves activation of phospholipase C leading to an increase in intracellular inositol triphosphate (IP3) which then activates IP3-gated calcium channels in the endoplasmic reticulum causing a transient rise in intracellular calcium. These changes in intracellular calcium upon OctR activation were measured by loading cells with intracellular calcium sensitive dye CALCIUM 6QR and reading the change in calcium-induced fluorescent signal over time on a FlexStation 3 microplate reader.

[6] = tested on: Ixodes scapularis tick OctR (IsTOctR); assay: OctR activation, change in intracellular calcium; assay type: cell-based; details: Ixodes tick OctR over Homo sapien α2-AR subtypes
Excerpt: as §1, §3

[7] = tested on: Anopheles gambiae mosquito isoform A OctR (AgAOctR); assay: OctR activation, change in intracellular calcium; assay type: cell-based; details: AgAOctR over Homo sapien α2-AR subtypes
Excerpt: as §1, §3

[8] = tested on: Balanus OctR (BiOctR); assay: OctR activation, change in intracellular calcium; assay type: cell-based, Balanus improvises; details: Balanus barnacle OctR over Homo sapien α2-AR subtypes
Excerpt: as §1, with “Briefly, binding conditions were 50 mM Tris binding buffer pH 7.4 at 25° C. and an ice-cold wash buffer 10 mM Tris-HCl, pH 7.4).” left out, “Following the addition of membranes prepared from the clonal cell lines, samples were mixed and allowed 2 hr. to reach equilibrium before rapid filtration and washing through 0.3% PEI-treated GF/C filters.” left out, “The affinity (KD) for the radioligand for each receptor was determined in separate saturation isotherm binding experiments using the same binding conditions as describe above.” left out

T2 sequence (P08913 whole entry): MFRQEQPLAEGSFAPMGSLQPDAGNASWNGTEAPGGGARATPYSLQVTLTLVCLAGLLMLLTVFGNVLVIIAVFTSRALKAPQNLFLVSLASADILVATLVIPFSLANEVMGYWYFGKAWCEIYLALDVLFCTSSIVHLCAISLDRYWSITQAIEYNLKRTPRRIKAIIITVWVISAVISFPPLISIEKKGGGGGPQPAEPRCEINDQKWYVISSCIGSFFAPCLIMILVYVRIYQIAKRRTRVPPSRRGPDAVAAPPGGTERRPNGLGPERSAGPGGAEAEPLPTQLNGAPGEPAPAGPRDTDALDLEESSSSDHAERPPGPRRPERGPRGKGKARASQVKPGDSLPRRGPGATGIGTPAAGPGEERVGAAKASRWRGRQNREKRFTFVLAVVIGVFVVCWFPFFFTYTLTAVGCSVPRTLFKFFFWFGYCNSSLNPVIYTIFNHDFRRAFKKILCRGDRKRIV

C=C(c1cnc[nH]1)c1cccc(C)c1C [AZ0027]
protection against mosquito biting ([1]; Aedes mosquito): protects against Aedes mosquito biting
toxicity to mosquitoes ([1]; DEET: at the lowest concentration that produces maximal protection against biting (LC50)): non-toxic to mosquitoes
potency relative to DEET ([1]; protection against mosquito biting): over 500 fold
Ki [2]: 231 ± 46 nM
Ki [3]: 109 ± 16 nM
volatility [4]: low volatility
selectivity Ki(Hsα2-AR)/EC50(OctR) [5]: highly selective
selectivity Ki(Hsα2-AR)/EC50(OctR) [6]: highly selective
selectivity Ki(Hsα2-AR)/EC50(OctR) [7]: highly selective
selectivity Ki(Hsα2-AR)/EC50(OctR) [8]: highly selective
